Reference: US20010031729A1, “Composition comprising carbohydrate and peptide material and its use as an energy supplement after or during physical exercise or as a metabolic nutrient for oral consumption” (priority 1999, published 2001)

System: healthy, non-obese male subjects after an overnight fast
Experiment: First study: insulinotropic effect of test drinks co-ingested with carbohydrate, plasma insulin by radio-immuno-assay
Type: in vivo, human
Conditions: 1st study
Source text: In studies presented below the effects of intact casein, several protein hydrolysates and protein hydrolysate in combination wit specific amino acids have been examined. The sodium casein used in this study is commercially available from DMV-International. Glucose and maltodextrin were obtained from AVEBE (the Netherlands) and crystalline amino acids from BUFA (the Netherlands). In the presented study the following commercially available protein hydrolysates from Quest-International have been used: Hyprol® 3301 (whey protein hydrolysate, average peptide chain length of 4.1), Hyprol® 4107 (wheat gluten protein hydrolysate, average peptide chain length of 12.2) and Hyprol® 7102 (pea protein hydrolysate, average peptide chain length of 6.4). The insulin responses in blood plasma was analysed by radio-immuno-assay (Insulin RIA 100 kit, Pharmacia, Sweden),
In three studies the efficiency of an amino acid and/or protein (hydrolysate) mixture in a carbohydrate containing drink with respect to their insulinotropic effect in human subjects was examined. […]
Eight healthy, non-obese male subjects (age 21±0.4, weight 73.9±2.2 kg, height 186±2 cm, BMI 21.4±0.7 kg·m^−2) after an overnight fast, were tested for 2 hours on 10 occasions in which different beverage compositions were ingested. […] The insulin response is expressed as area under the curve during the second hour. […]

Influence of addition of free glutamine on plasma glutamine concentrations: hardly influenced
SMILES: NC(=O)CC[C@H](N)C(=O)O [glutamine]
Effect on the insulin response of addition to the mixture of arginine, leucine and phenylalanine (healthy men): no effect
